Test [1] concerns the target HRAS wild-type protein (Homo sapiens, UniProt P01112). The experiment in a line: Binding to HRAS by surface plasmon resonance (SPR), KD and KD ratio to KRAS. The procedure, abridged:
(§1)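 Single-cycle kinetics on GDP-loaded biotin-Avi RAS captured to ~100–300 RU; 75 s ascending injections, 100 µL/min, 30°C. HBS pH 7.4 + 10 mM MgCl2/10 µM GDP/4% DMSO. 1:1 fit, KD.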

The target of test [2] is GDP-bound NRAS wild-type protein (Homo sapiens, UniProt P01111). The experiment in a line: Binding to NRAS by surface plasmon resonance (SPR), KD and KD ratio to KRAS. The procedure, abridged: as §1
On the technique in general: SPR reads the build-up and loss of mass on a sensor chip optically.

Test [3] addresses GDP-bound KRAS wild-type protein (Homo sapiens, UniProt P01116). The experiment in a line: Binding to KRAS by surface plasmon resonance (SPR), dissociation constant KD. The settings on record: 1:1 binding model. The procedure, abridged:
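Captured GDP-RAS (~100–300 RU) was exposed to increasing compound concentrations, 75 s per step, in running buffer with 10 µM GDP, 10 mM MgCl2 and 4% DMSO at pH 7.4.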

Test [4] relates to human lung cancer strain NCI-H441. It is filed as cell-based. The procedure, abridged:
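Proliferation was scored by […] measured after the reagent was added to cultures kept at 37°C in 5% carbon dioxide.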

The mark [5] stands for this setting: ratio of KD value for HRAS wild-type protein to KD value for KRAS (SPR).
[6] abbreviates: ratio of KD value for GDP-bound NRAS wild-type protein to KD value for KRAS (SPR).
Setting [7] is: ratio of KD for HRAS wild-type protein to KD for KRAS.
The mark [8] stands for this setting: ratio of KD for GDP-bound NRAS wild-type protein to KD for KRAS.

Structures are written as SMILES.

Sequence of GDP-bound KRAS wild-type protein (P01116 1-188 isoform P01116-2): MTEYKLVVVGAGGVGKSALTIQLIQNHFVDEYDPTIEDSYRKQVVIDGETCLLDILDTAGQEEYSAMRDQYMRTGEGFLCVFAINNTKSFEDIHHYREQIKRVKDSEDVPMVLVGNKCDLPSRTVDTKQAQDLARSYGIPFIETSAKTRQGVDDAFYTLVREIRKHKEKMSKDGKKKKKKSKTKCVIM
Sequence of HRAS wild-type protein (P01112 whole entry): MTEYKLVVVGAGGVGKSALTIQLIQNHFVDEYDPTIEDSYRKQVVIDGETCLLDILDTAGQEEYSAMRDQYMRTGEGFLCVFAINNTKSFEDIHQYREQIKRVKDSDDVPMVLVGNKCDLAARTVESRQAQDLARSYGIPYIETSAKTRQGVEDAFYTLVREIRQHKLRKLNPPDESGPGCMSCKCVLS
Sequence of GDP-bound NRAS wild-type protein (P01111 whole entry): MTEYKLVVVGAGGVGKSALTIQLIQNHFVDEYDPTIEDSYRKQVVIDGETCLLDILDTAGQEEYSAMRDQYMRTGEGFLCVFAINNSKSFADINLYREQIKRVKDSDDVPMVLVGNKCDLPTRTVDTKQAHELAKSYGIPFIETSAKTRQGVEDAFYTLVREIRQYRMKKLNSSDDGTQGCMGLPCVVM

As to `C=CCCCCN(C)C(=O)[C@@H]1CC(=O)N(C)[C@@H](CC2CC2)C(=O)N[C@@H](CC=C)C(=O)N(C)CC(=O)N(C)[C@H]2C/C=C\CCN(C2=O)[C@@H](Cc2ccc(C(F)(F)F)cc2)C(=O)N(C)CC(=O)N[C@@H](CCc2cc(F)c(C(F)(F)F)c(F)c2)C(=O)N2C[C@H](OCC)C[C@H]2C(=O)NC2(CCC2)C(=O)N(C)[C@@H](C2CCCC2)C(=O)N1C` [PP1554], the “HRAS /KRAS” value in test [1] (setting [5]) was “A (a compound having 10 or more and less than 20 is denoted as A)”. In test [2] (setting [6]), the “NRAS /KRAS” value is “A (a compound having 10 or more and less than 20 is denoted as A)”. The Kd (commonly the equilibrium constant for the complex coming apart) in test [3] (Single Cycle Kinetics) amounted to 2.7 nM. Further, it took 121 nM to reach half-maximal inhibition in test [4] (IC50).
For the compound `CCC[C@H]1C(=O)N[C@@H]([C@@H](C)CC)C(=O)N(C2CC2)CC(=O)N(C)[C@H]2C/C=C\CCN(C2=O)[C@@H](Cc2ccc(C)cc2)C(=O)N(C)CC(=O)N[C@@H](CCc2ccc(C(F)(F)F)c(OC)c2)C(=O)N2C[C@H](OCC)C[C@H]2C(=O)N(C)C2(CCC2)C(=O)N(C)[C@@H](C(CC)CC)C(=O)N(C)[C@H](C(=O)N(C)C)CC(=O)N1C` [PP2325], the “HRAS /KRAS” value in test [1] (ratio of the KD value with respect to HRAS wild-type protein to the KD value with respect to KRAS) is “A (a compound having 10 or more and less than 20 is denoted as A)”. For the same compound, the “NRAS /KRAS” value in test [2] (ratio of the KD value with respect to GDP-bound NRAS wild-type protein to the KD value with respect to KRAS) is “A (a compound having 10 or more and less than 20 is denoted as A)”. Binding in test [3] (Single Cycle Kinetics) was put at a Kd of 0.4 nM. In addition, half-maximal inhibition in test [4] (IC50) required 8.2 nM.
Take `CCC(CC)[C@H]1C(=O)N(C)[C@H](C(=O)N(C)C)CC(=O)N(C)[C@@H](COC)C(=O)N[C@@H]([C@@H](C)CC)C(=O)N(C)CC(=O)N(C)[C@H]2C/C=C\CCN(C2=O)[C@@H](Cc2ccc(C)cc2)C(=O)N(C)CC(=O)N[C@@H](CCc2ccc(C(F)(F)F)c(Cl)c2)C(=O)N2CCCC[C@H]2C(=O)NC2(CC(C)(C)C2)C(=O)N1C` [PP2931]: the “HRAS /KRAS” value in test [1] (setting [7]) was “A (a compound having 10 or more and less than 20 is denoted as A)”. Further, in test [2] (setting [8]), the “NRAS /KRAS” value was “A (a compound having 10 or more and less than 20 is denoted as A)”. For the same compound, in test [3], the Kd amounted to 1.9 nM. For the same compound, it took 65.5 nM to reach half-maximal inhibition in test [4] (IC50).
Regarding `CCO[C@@H]1C[C@H]2C(=O)NC3(CCC3)C(=O)N(C)[C@@H](C3CCCC3)C(=O)N(C)[C@H](C(=O)N(C)C)CC(=O)N(C)[C@@H](CC3CC3)C(=O)N[C@@H]([C@@H](C)CC)C(=O)N(C)CC(=O)N(C)[C@H]3C/C=C\CCN(C3=O)[C@@H](Cc3ccc(F)cc3C)C(=O)N(C)CC(=O)N[C@@H](CCc3cc(F)c(C(F)(F)F)c(F)c3)C(=O)N2C1` [PP1528], the “HRAS /KRAS” value in test [1] (setting [5]) is “B (a compound having 3 or more and less than 10 is denoted as B)”. Also, in test [2] (setting [6]), the “NRAS /KRAS” value was “A (a compound having 10 or more and less than 20 is denoted as A)”. Also, the Kd in test [3] (Single Cycle Kinetics) turned out to be 0.2 nM. Inhibition in test [4] was half-maximal at 45.6 nM (IC50).
For `CCO[C@@H]1C[C@H]2C(=O)NC3(CC(C)(C)C3)C(=O)N(C)[C@@H](C3CCCC3)C(=O)N(C)[C@H](C(=O)N(C)CC)CC(=O)N(C)[C@@H]([C@@H](C)OC)C(=O)N[C@@H]([C@@H](C)CC)C(=O)N(C)CC(=O)N(C)[C@H]3C/C=C\CCN(C3=O)[C@@H](Cc3ccc(C)cc3)C(=O)N(C)CC(=O)N[C@@H](CCc3cc(F)c(C(F)(F)F)c(F)c3)C(=O)N2C1` [PP3178], the “HRAS /KRAS” value in test [1] (setting [7]) was “A (a compound having 10 or more and less than 20 is denoted as A)”. Besides, the “NRAS /KRAS” value in test [2] (setting [8]) is “A (a compound having 10 or more and less than 20 is denoted as A)”. Further, the Kd in test [3] was 0.092 nM. In addition, in test [4], 11.6 nM corresponded to half-maximal inhibition (IC50).
As to `CCO[C@@H]1C[C@H]2C(=O)NC3(CC(C)(C)C3)C(=O)N(C)[C@@H](C3CCCC3)C(=O)N(C)[C@H](C(=O)N(C)CC)CC(=O)N(C)[C@@H]([C@@H](C)OC)C(=O)N[C@@H]([C@@H](C)CC)C(=O)N3CCC[C@H]3C(=O)N(C)[C@H]3C/C=C\CCN(C3=O)[C@@H](Cc3ccc(C)cc3)C(=O)N(C)CC(=O)N[C@@H](CCc3ccc(C(F)(F)F)c(Cl)c3)C(=O)N2C1` [PP3192], in test [1] (setting [7]), the “HRAS /KRAS” value was “A (a compound having 10 or more and less than 20 is denoted as A)”. For the same compound, the “NRAS /KRAS” value in test [2] (setting [8]) was “A (a compound having 10 or more and less than 20 is denoted as A)”. The compound also registered a Kd in test [3] of 0.96 nM. Besides, inhibition in test [4] was half-maximal at 41.3 nM (IC50).

Values taken from patent EP4603105A1, “PHARMACEUTICAL COMPOSITION CONTAINING CYCLIC COMPOUND HAVING SELECTIVE KRAS INHIBITORY EFFECT AGAINST HRAS AND NRAS” (CHUGAI SEIYAKU KABUSHIKI KAISHA, priority 2022, dated 2024).
